Test results taken from article PMC8615111, “Phenolic Thiazoles with Antioxidant and Antiradical Activity. Synthesis, In Vitro Evaluation, Toxicity, Electrochemical Behavior, Quantum Studies and Antimicrobial Screening” (Antioxidants, 2021).
Read-outs that look alike come from different tables or passages of the source.

What was measured:
[1] = tested on: S. typhimurium ATCC 14028; experiment: Antimicrobial activity, modified microdilution; type: cell-based; settings: Salmonella enterica
Experimental: (§1) For evaluating the antimicrobial activity of the compounds, […] aerobic microbial strains were used: S. aureus ATCC 25923, S. pyogenes ATCC 19615, P. aeruginosa ATCC 27853, S. enterica ISM 83/37, S. typhimurium ATCC 14028, E. coli ATCC 8739, E. coli ATCC 25922, and C. albicans ATCC 102310 obtained from Food Biotechnology Laboratory, Life Sciences Institute, University of Agricultural Sciences, and Veterinary Medicine Cluj Napoca, where the experiment was performed. The antimicrobial activity of the compounds was determined using a modified microdilution technique, and the followed protocol was previously reported.
(§2) The antimicrobial activity of the final compounds, against seven aerobic microbial strains (S. aureus ATCC 25923, S. pyogenes ATCC 19615, P. aeruginosa ATCC 27853, S. enterica ISM 83/37, S. typhimurium ATCC 14028, E. coli ATCC 8739, E. coli ATCC 25922), and a fungal strain (C. albicans ATCC 102310), was determined using a modified microdilution technique.
(§3) The results of the antimicrobial activity evaluation of the compounds, in comparison to norfloxacin and chloramphenicol used as standard antibiotics and fluconazole used as reference antifungal, are depicted in Table 10.

S. enterica ISM 83/37 = experiment: Antimicrobial activity, modified microdilution; type: cell-based; settings: Salmonella enterica, ISM83/37
Experimental: as §1, §2, §3

S. pyogenes ATCC 19615 = experiment: Antimicrobial activity, modified microdilution; type: cell-based; settings: Streptococcus pyogenes, ATCC19615
Experimental: as §1, §2, §3

E. coli ATCC 25922 = experiment: Antimicrobial activity, modified microdilution; type: cell-based; settings: Escherichia coli, ATCC25922
Experimental: as §1, §2, §3

S. aureus ATCC 25923 = experiment: Antimicrobial activity, modified microdilution; type: cell-based; settings: Staphylococcus aureus, ATCC25923
Experimental: as §1, §2, §3

E. coli ATCC 8739 = experiment: Antimicrobial activity, modified microdilution; type: cell-based; settings: Escherichia coli, ATCC8739
Experimental: as §1, §2, §3

P. aeruginosa ATCC 27853 = experiment: Antimicrobial activity, modified microdilution; type: cell-based; settings: Pseudomonas aeruginosa, ATCC27853
Experimental: as §1, §2, §3

C. albicans ATCC 102310 = experiment: Antifungal activity, modified microdilution; type: cell-based; settings: Candida albicans, ATCC102310
Experimental: as §1, §2, §3

[2] = NO˙ radical scavenging assay (Griess reaction); type: biochemical; settings: 100 µL of test solution 1 mg/mL in DMSO, 150 min, pH 7.4
Experimental: Scavenging of the NO˙ radical was performed according to some adapted protocols reported in the literature, based on the nitroprusside decomposition at physiological pH and colorimetric quantification of the resulted products using the Griess reaction.
Over 200 µL of 10 mM sodium nitroprusside, 100 µL of test solutions (1 mg/mL in DMSO), and 400 µL phosphate-buffered saline (PBS, pH = 7.4) were added. The mixture was then incubated at room temperature for 150 min on a rotating shaker (GFL Gesellschaft für Labortechnik, Burgwedel, Germany). After that, 1 mL of sulfanilic acid 0.33% in 20% acetic acid was added and after 5 min, 1 mL of naphthylethylenediamine […] 0.1% was added to all test tubes. After 30 min, the absorbance of the sample, given by the chromophore (azo dye) formed during the diazotization of nitrite ions resulting from decomposition of sodium nitroprusside with sulfanilic acid and coupled with naphthylethylenediamine, was measured at 546 nm. The NO˙ radical scavenging activity of the tested compounds was calculated using Equation (3):(3) NO˙ scavenging (%)=control absorbance−sample absorbance/control absorbance×100

[3] = Cyclic voltammetry of the compounds on graphite-based SPE; type: physicochemical; settings: CV, 0.1 M HClO4, graphite-based SPE
Experimental: The evaluated compounds’ stock solutions used were prepared at a concentration of 5 mM. To test their redox properties, dilutions of 0.5 mM and 2 mM were prepared in 0.1 M HClO4 electrolyte (pH = 1.2). Screen-printed electrodes (SPEs; Metrohm DropSens, Oviedo, Spain) (planar electrodes) with graphite and gold working electrodes were used. Cyclic voltammetry (CV) and differential pulse voltammetry (DPV) were the electrochemical methods applied. The experimental conditions for each test are mentioned near the corresponding data (Appendix A).
In Figure 2, the cyclic voltammograms (CVs) for each of the compounds considered in this study, compared individually with the voltammogram obtained in the electrolyte (0.1 M HClO4), are presented. Thus, the oxidation/reduction peaks corresponding to the electrochemical transformations suffered by each compound can be observed in the potential range considered, in an acidic environment (low pH). From Figure 3, where the voltammograms of all eight compounds were presented together, a similarity is observed between 8a and 8b, and among the other compounds, whereas 5a and 5b can be noted as having the highest oxidation signals.

Fe^2+ chelation assay = type: biochemical
Experimental: The protocol used for assessing Fe^2+ chelating capacity of the compounds was adapted from a report of Benzie and Strain and previously reported by our group. The iron(II) chelation ability of compounds was calculated using Equation (7):(7) iron chelation (%)=control absorbance−sample absorbance/control absorbance×100
The chelating potential for the ferrous ions of the new compounds was determined, based on their competition for Fe^2+ with ferrozine.

[4] = TEMPO scavenging by differential pulse voltammetry; settings: 2 mM TEMPO, one hour incubation, 0.1 M HClO4, DPV
Experimental: The antioxidant properties were evaluated in terms of their activity against some free radicals, and other compounds reported in the literature, relevant for this purpose, such as: • ferric ions (Fe^3+)—used to test the reduction of the antioxidant character of the compounds; • DPPH˙ free radical– used to test the scavenging effect of the compounds on this radical; • hydrogen peroxide (H2O2)—used to test the scavenging effect of the synthesized molecules on this compound; • 2,2,6,6-tetramethylpiperidinyl-1-oxy (TEMPO)—used to test the scavenging effect of the synthesized molecules on this compound.
TEMPO (2,2,6,6-tetramethylpiperidine-N-oxyl) is a stable organic nitroxide radical that has been reported to scavenge carbon-centered radicals.
Differential pulse voltammetry (DPV) was then applied in order to evaluate the antioxidant effectiveness of the novel compounds through their ability to scavenge the free radical species.

[5] = S. typhimurium ATCC 14028, read-out: MIC
[6] = S. pyogenes ATCC 19615, read-out: MIC
[7] = E. coli ATCC 25922, read-out: MIC
[8] = S. aureus ATCC 25923, read-out: MIC
[9] = E. coli ATCC 8739, read-out: MIC
[10] = P. aeruginosa ATCC 27853, read-out: MIC
[11] = C. albicans ATCC 102310, read-out: MIC

SMILES | MIC [1] [µg/mL] | MIC (S. enterica ISM 83/37) [µg/mL] | MIC (S. pyogenes ATCC 19615) [µg/mL] | MIC (E. coli ATCC 25922) [µg/mL] | MIC (S. aureus ATCC 25923) [µg/mL] | MIC (E. coli ATCC 8739) [µg/mL] | % of NO˙ Scavenged [2] [%] | Eox (V) ([3]; 1st oxidation peak) | Iox (μA) ([3]; 1st oxidation peak) | Eox (V) ([3]; 2nd oxidation peak) | Iox (μA) ([3]; 2nd oxidation peak) | Ired (μA) ([3]; 2nd reduction peak) | Eox (V) ([3]; 3rd oxidation peak) | Iox (μA) ([3]; 3rd oxidation peak) | Chelation Capacity (%), ferrous ions (Fe^2+ chelation assay; 50 µg/mL) [%] | Chelation Capacity (%), ferrous ions (Fe^2+ chelation assay; 100 µg/mL) [%] | Chelation Capacity (%), ferrous ions (Fe^2+ chelation assay; 150 µg/mL) [%] | Chelation Capacity (%), ferrous ions (Fe^2+ chelation assay; 200 µg/mL) [%] | oxidation signal for TEMPO after incubation with the compound [4] | Ired (μA) ([3]; 3rd reduction peak) | other results
Br.C/C(=N\Nc1nc(-c2ccc(O)c(C(N)=O)c2)cs1)c1ccc(O)cc1O [Compound 7a, (E)-1-(4-(3-carbamoyl-4-hydroxyphenyl)thiazol-2-yl)-2-(1-(2,4-dihydroxyphenyl)ethylidene)hydrazin-1-ium bromide] | > 100 | > 100 | 31.2 | > 100 | 62.4 | > 100 | 21.44 | 0.269 | 14.75 | 0.374 | 2.06 | −4.65 | 0.561 | 2.69 | 0.07 | 1.73 | 2.29 | 3.88 | does not decrease |  | MIC (P. aeruginosa ATCC 27853): 3.9 µg/mL; MIC (C. albicans ATCC 102310): > 100 µg/mL; Ered (V) ([3]; 2nd reduction peak): 0.205 V
Br.NC(=O)c1cc(-c2csc(N/N=C/c3ccc(O)cc3O)n2)ccc1O [Compound 7b, (E)-1-(4-(3-carbamoyl-4-hydroxyphenyl)thiazol-2-yl)-2-(2,4-dihydroxybenzylidene) hydrazin-1-ium bromide] | > 100 | > 100 | > 100 | > 100 | > 100 | > 100 | 26.33 | 0.267 | 13.22 | 0.412 | 15.78 | 0.078 | 0.543 | 6.385 | 0.07 | 3.44 | 9.13 | 16.28 | does not decrease | 0.201 | MIC (P. aeruginosa ATCC 27853): 15.6 µg/mL; MIC (C. albicans ATCC 102310): > 100 µg/mL; Ired (μA) ([3]; 1st reduction peak): −0.119 μA
C/C(=N\Nc1nc(-c2ccc(O)c(O)c2)cs1)c1ccc(O)cc1O.Cl [Compound 8a, (E)-2-(1-(2,4-dihydroxyphenyl)ethylidene)-1-(4-(3,4-dihydroxyphenyl)thiazol-2-yl)hydrazin-1-ium chloride] |  | > 100 |  |  |  |  | 32.72 | 0.174 | 21.51 | 0.386 | 37.08 | −4.79 | 0.520 | 4.87 | 7.73 | 12.28 | 17.60 | 22.64 | both the signal shift to higher oxidation potentials and its decrease | −38.91 | MIC [1, 5]: > 100 µg/mL; MIC (S. pyogenes ATCC 19615; [6]): > 100 µg/mL; MIC (E. coli ATCC 25922; [7]): > 100 µg/mL; MIC (S. aureus ATCC 25923; [8]): > 100 µg/mL; MIC (E. coli ATCC 8739; [9]): > 100 µg/mL; MIC (P. aeruginosa ATCC 27853; [10]): 7.8 µg/mL; MIC (C. albicans ATCC 102310; [11]): > 100 µg/mL; Ered (V) ([3]; 2nd reduction peak): 0.101 V; Ered (V) ([3]; 3rd reduction peak): 0.335 V
Cl.Oc1ccc(/C=N/Nc2nc(-c3ccc(O)c(O)c3)cs2)c(O)c1 [Compound 8b, (E)-2-(2,4-dihydroxybenzylidene)-1-(4-(3,4-dihydroxyphenyl)thiazol-2-yl)hydrazin-1-ium chloride] |  | > 100 |  |  |  |  | 46.30 | 0.166 | 2.19 | 0.508 | 40.99 |  |  |  | 10.74 | 18.15 | 25.06 | 33.38 | both the signal shift to higher oxidation potentials and its decrease | −40.37 | MIC [1, 5]: > 100 µg/mL; MIC (S. pyogenes ATCC 19615; [6]): > 100 µg/mL; MIC (E. coli ATCC 25922; [7]): > 100 µg/mL; MIC (S. aureus ATCC 25923; [8]): > 100 µg/mL; MIC (E. coli ATCC 8739; [9]): > 100 µg/mL; MIC (P. aeruginosa ATCC 27853; [10]): 31.2 µg/mL; MIC (C. albicans ATCC 102310; [11]): > 100 µg/mL; Ered (V) ([3]; 3rd reduction peak): 0.325 V
